Literature values as cited in patent US12648912B2 (Mylan Laboratories Limited, priority 2020, dated 2026).

Assays:
[1] = not given; remark: listed apart in the source

SMILES: Cc1cnc(NC(=O)C2=C(O)c3ccccc3S(=O)(=O)N2C)s1 [Meloxicam, 4-hydroxy-2-methyl-N-(5-methyl-2-thiazolyl)-2H-1,2-benzothiazine-3-carboxamide-1,1-dioxide]
- solubility in methanol (methanol): very slightly soluble
- solubility in water (water): practically insoluble
- Tmax in fasted state relative to after breakfast ([1]; 15 mg tablets, fasted state): doubled
- Tmax (time to reach maximum concentration) ([1]; orally delivered, humans): 4 to 6 h
- second meloxicam concentration peak, time post-dose ([1]; post-dose, suggested gastrointestinal recirculation): 12 to 14 h
